For the assay, the system named is Aβ42 production. The assay can be described thus: Quantification of Aβ peptide in culture of neurons from rat fetus brain (Aβ ELISA). Format: cell-based. The conditions noted are these: Neuron, 72 h; rat primary neuronal culture (cerebral cortex, embryonic day 18 Wistar rats); medium collected three days after addition of the compound; Aβx-42 ELISA; read-out: Aβ42 production reducing effect IC50. Summed up: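 Primary cortical neurons from embryonic day 18 Wistar rats were cultured 4 days, then exposed to compound in Neurobasal/B27 without 2-ME, final DMSO ≤1%. After three days, medium was collected and Aβx-42 measured undiluted by sandwich ELISA.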

IC50 data for 25 molecules are collected here from patent publication US20100317850A1 (priority 2008, published 2010).

Turning to `NC1=N[C@@]2(c3cc(NC(=O)c4cnc(C(F)F)cn4)ccc3F)CCO[C@H](CF)[C@H]2CS1` (relative stereo) [Example 146, N-[3-((4aS*,5S*,8aS*)-2-amino-5-fluoromethyl-4a,5,7,8-tetrahydro-4H-6-oxa-3-thia-1-azanaphthalen-8a-yl)-4-fluorophenyl]-5-difluoromethylpyrazine-2-carboxamide], the IC50 amounted to 32 nM. Under `NC1=N[C@@]2(c3cc(NC(=O)c4ccc(OC(F)F)cn4)ccc3F)CCO[C@H](CF)[C@H]2CS1` (relative stereo) [Example 147, N-[3-((4aS*,5S*,8aS*)-2-amino-5-fluoromethyl-4a,5,7,8-tetrahydro-4H-6-oxa-3-thia-1-azanaphthalen-8a-yl)-4-fluorophenyl]-5-difluoromethoxypyridine-2-carboxamide] stands 12 nM; under `NC1=N[C@@]2(c3cc(NC(=O)c4ccc(Cl)cn4)ccc3F)CCO[C@H](CF)[C@H]2CS1` (relative stereo) [Example 148, N-[3-((4aS*,5S*,8aS*)-2-amino-5-fluoromethyl-4a,5,7,8-tetrahydro-4H-6-oxa-3-thia-1-azanaphthalen-8a-yl)-4-fluorophenyl]-5-chloropyridine-2-carboxamide], 9 nM; under `NC1=N[C@@]2(c3cc(NC(=O)c4ccc(C(F)(F)F)cn4)ccc3F)COC[C@H]2CS1` (relative stereo) [Example 165, N-[3-((4aS*,7aS*)-2-amino-4a,5-dihydro-4H-furo[3,4-d][1,3]thiazin-7a-yl)-4-fluorophenyl]-5-trifluoromethylpyridine-2-carboxamide], 12 nM. Turning to `NC1=N[C@@]2(c3cc(NC(=O)c4ccc(Br)cn4)ccc3F)COC[C@H]2CS1` (relative stereo) [Example 166, N-[3-((4aS*,7aS*)-2-amino-4a,5-dihydro-4H-furo[3,4-d][1,3]thiazin-7a-yl)-4-fluorophenyl]-5-bromopyridine-2-carboxamide], the IC50 was determined as 4 nM. With `NC1=N[C@@]2(c3cc(NC(=O)c4ccc(OC(F)F)cn4)ccc3F)COC[C@H]2CS1` (relative stereo) [Example 167, N-[3-((4aS*,7aS*)-2-amino-4a,5-dihydro-4H-furo[3,4-d][1,3]thiazin-7a-yl)-4-fluorophenyl]-5-difluoromethoxypyridine-2-carboxamide], the concentration for half-maximal inhibition (IC50) was found to be 6 nM. `CO[C@@H]1CC[C@H]2CSC(N)=N[C@@]2(c2cc(NC(=O)c3ccc(C#N)cn3)ccc2F)C1` (relative stereo) [Example 202, N-[3-((4aR*,7R*,8aS*)-2-amino-7-methoxy-4,4a,5,6,7,8-hexahydrobenzo[d][1,3]thiazin-8a-yl)-4-fluorophenyl]-5-cyanopyridine-2-carboxamide]: the IC50 is 3 nM.

Turning to `CO[C@H]1CC[C@]2(c3cc(NC(=O)c4ccc(C#N)cn4)ccc3F)N=C(N)SC[C@@H]2C1` (relative stereo) [Example 204, N-[3-((4aR*,6S*,8aS*)-2-amino-6-methoxy-4,4a,5,6,7,8-hexahydrobenzo[d][1,3]thiazin-8a-yl)-4-fluorophenyl]-5-cyanopyridine-2-carboxamide], the IC50 worked out at 23 nM. Under `CO[C@@H]1CC[C@]2(c3cc(NC(=O)c4ccc(C#N)cn4)ccc3F)N=C(N)SC[C@@H]2C1` (relative stereo) [Example 206, N-[3-((4aR*,6R*,8aS*)-2-amino-6-methoxy-4,4a,5,6,7,8-hexahydrobenzo[d][1,3]thiazin-8a-yl)-4-fluorophenyl]-5-cyanopyridine-2-carboxamide] stands 2 nM; under `CO[C@@H]1CC[C@]2(c3cc(NC(=O)c4cnc(C(F)F)cn4)ccc3F)N=C(N)SC[C@@H]2C1` (relative stereo) [Example 207, N-[3-((4aR*,6R*,8aS*)-2-amino-6-methoxy-4,4a,5,6,7,8-hexahydrobenzo[d][1,3]thiazin-8a-yl)-4-fluorophenyl]-5-difluoromethylpyrazine-2-carboxamide], 3 nM.

Take `N#Cc1ccc(C(=O)Nc2ccc(F)c([C@]34CC[C@H](F)C[C@H]3CSC(N)=N4)c2)nc1` (relative stereo) [Example 215, N-[3-((4aR*,6S*,8aS*)-2-amino-6-fluoro-4,4a,5,5,6,7,8-hexahydrobenzo[d][1,3]thiazin-8a-yl)-4-fluorophenyl]-5-cyanopyridine-2-carboxamide]: the IC50 came to 10 nM. `CO[C@H]1C[C@H]2CSC(N)=N[C@@]2(c2cc(-c3cccnc3F)ccc2F)C1` (relative stereo) [Example 243, (±)-(4aR*,6S*,7aS*)-7a-[2-Fluoro-5-(2-fluoro-pyridin-3-yl)phenyl-6-methoxy-4,4a,5,6,7,7a-hexahydrocyclopenta[d][1,3]thiazin-2-ylamine]: the IC50 was 69 nM.

Turning to `NC1=N[C@@]2(c3cc(NC(=O)c4ccc(Cl)cn4)ccc3F)CCCC[C@H]2CS1` (single isomer, unassigned) [Example 3, (+)-N-[3-((4aR.*,8aS*)-2-amino-4,4a,5,6,7,8-hexahydrobenzo[d][1,3]thiazin-8a-yl)-4-fluorophenyl]-5-chloropyridine-2-carboxamide], the half-inhibitory concentration (IC50) turned out to be 9 nM. Under `NC1=N[C@@]2(c3cc(NC(=O)c4cnc(OC(F)F)cn4)ccc3F)CCC[C@H]2CS1` (single isomer, unassigned) [Example 20, N-[3-((4aR*,7aS*)-2-amino-4a,5,6,7-tetrahydro-4,1-cyclopenta[d][1,3]thiazin-7a-yl-4-fluorophenyl]-5-difluoromethoxypyrazine-2-carboxamide] stands 5 nM. Under `N#Cc1ccc(C(=O)Nc2ccc(F)c([C@]34CCC[C@H]3CSC(N)=N4)c2)nc1` (single isomer, unassigned) [Example 22, N-[3-((4aR*,7aS*)-2-amino-4a,5,6,7-tetrahydro-4H-cyclopenta[d][1,3]thiazin-7a-yl)-4-fluorophenyl]-5-cyanopyridine-2-carboxamide] stands 5 nM; under `NC1=N[C@@]2(c3cc(NC(=O)c4cnc(OCF)cn4)ccc3F)COC[C@H]2CS1` (single isomer, unassigned) [Example 27, N-[3-((7S*,7aS*)-2-amino-4a,5-dihydro-4H-furo[3,4-d][1,3]thiazin-7a-yl)-4-fluorophenyl]-5-fluoromethoxypyrazine-2-carboxamide], 11 nM; under `N#Cc1ccc(C(=O)Nc2ccc(F)c([C@]34CCOC[C@H]3CSC(N)=N4)c2)nc1` (single isomer, unassigned) [Example 28, N-[3-((4aS*,8aS*)-2-amino-4a,7,8-tetrahydro-4H-6-oxa-3-thia-1-azanaphthalen-8a-yl)-4-fluorophenyl]-5-cyanopyridine-2-carboxamide], 12 nM. Under `NC1=N[C@@]2(c3cc(NC(=O)c4cnc(Cl)cn4)ccc3F)CCCC[C@H]2CS1` (single isomer, unassigned) [Example 104, N-[3-((4aR*,8aS*)-2-amino-4,4a,5,6,7,8-hexahydrobenzo[d][1,3]thiazin-8a-yl)-4-fluorophenyl]-5-chloropyrazine-2-carboxamide] stands 212 nM. `NC1=N[C@@]2(c3cc(NC(=O)c4ncc(F)cc4F)ccc3F)CCCC[C@H]2CS1` (single isomer, unassigned) [Example 105, N-[3-((4aR*,8aS*)-2-amino-4,4a,5,6,7,8-hexahydrobenzo[d][1,3]thiazin-8a-yl)-4-fluorophenyl]-3,5-difluoropyridine-2-carboxamide]: the 50% inhibitory concentration (IC50) came out at 121 nM. Under `NC1=N[C@@]2(c3cc(NC(=O)c4ccc(C(F)(F)F)cn4)ccc3F)CCCC[C@H]2CS1` (single isomer, unassigned) [Example 106, N-[3-((4aR*,8aS*)-2-amino-4,4a,5,6,7,8-hexahydrobenzo[d][1,3]thiazin-8a-yl)-4-fluorophenyl]-5-trifluoromethylpyridine-2-carboxamide] stands 88 nM. Under `COc1cnc(C(=O)Nc2ccc(F)c([C@]34CCCC[C@H]3CSC(N)=N4)c2)cn1` (single isomer, unassigned) [Example 107, N-[3-((4aR*,8aS*)-2-amino-4,4a,5,6,7,8-hexahydrobenzo[d][1,3]thiazin-8a-yl)-4-fluorophenyl]-5-methoxypyrazine-2-carboxamide] stands 17 nM. Take `NC1=N[C@@]2(c3cc(NC(=O)c4ccc(C#CC5CC5)cn4)ccc3F)CCC[C@H]2CS1` (single isomer, unassigned) [Example 132, N-[3-((4aR*,7aS*)-2-amino-4a,5,6,7-tetrahydro-4H-cyclopenta[d][1,3]thiazin-7a-yl)-4-fluorophenyl]-5-cyclopropylethynyl-pyridine-2-carboxamide]: the IC50 stood at 44 nM. Under `NC1=N[C@@]2(c3cc(NC(=O)c4ccc(-c5nccs5)cn4)ccc3F)CCC[C@H]2CS1` (single isomer, unassigned) [Example 133, N-[3-((4aR*,7aS*)-2-amino-4a,5,6,7-tetrahydro-4H-cyclopenta[d][1,3]thiazin-7a-yl)-4-fluorophenyl]-5-thiazol-2-yl-pyridine-2-carboxamide] stands 63 nM; under `CSc1cnc(C(=O)Nc2ccc(F)c([C@]34CCC[C@H]3CSC(N)=N4)c2)cn1` (single isomer, unassigned) [Example 135, N-[3-((4aR*,7aS*)-2-amino-4a,5,6,7-tetrahydro-4H-cyclopenta[d][1,3]thiazin-7a-yl)-4-fluorophenyl]-5-methylsulfanyl-pyrazine-2-carboxamide], 15 nM; under `COCC#Cc1ccc(C(=O)Nc2ccc(F)c([C@]34CCC[C@H]3CSC(N)=N4)c2)nc1` (single isomer, unassigned) [Example 136, N-[3-((4aR*,7aS*)-2-amino-4a,5,6,7-tetrahydro-4H-cyclopenta[d][1,3]thiazin-7a-yl)-4-fluorophenyl]-5-(3-methoxypropyn-1-yl)-pyridine-2-carboxamide], 25 nM.

As a reminder, the IC50 is the point on the concentration scale where inhibition reaches its midpoint.
